Results: publication PMC6325219, “Preclinical Characterization of NVR 3-778, a First-in-Class Capsid Assembly Modulator against Hepatitis B Virus” (Antimicrobial Agents and Chemotherapy, 2018)
Marks after values point to notes of the source that are not given here.

Experiments:
HBV GT A = assay: Transient-transfection antiviral study in HepG2 cells, GT A; assay type: cell-based; settings: Hepatitis B virus, 72 h, 3 days, intracellular encapsidated rcDNA
Method: (§4) Cells were cotransfected with the HBV plasmids (100 ng/well) and a Gaussia expression plasmid (10 ng/well) (Thermo Scientific) using the Lipofectamine LTX Plus transfection reagent (Life Technologies). Transfection mixtures were removed after overnight incubation, and cells were treated with serially diluted NVR 3-778 at a final dimethyl sulfoxide (DMSO) concentration of 0.5%. After 3 days of incubation with the compound, the supernatants were collected and secreted Gaussia luciferase was measured using a Gaussia Flash luciferase assay kit (Thermo Scientific). […] Samples were diluted into lysis buffer (Affymetrix) containing 2.5 µg proteinase K (Affymetrix) at 50°C for 40 min. Intracellular encapsidated HBV DNA was denatured for 30 min at 25°C in 0.2 M NaOH (Sigma) and incubated with HBV DNA probes designed to hybridize to the minus-strand HBV DNA (Affymetrix). The denatured DNA was subsequently detected using a QuantiGene assay kit, according to the branched DNA (bDNA) assay recommended by the manufacturer (Affymetrix).

HBV GT D = assay: Transient-transfection antiviral study in HepG2 cells, GT D; assay type: cell-based; settings: Hepatitis B virus, HepG2, 72 h, read-out: EC50 (mean), HBV GT D
Method: as §4

HBV GT E = assay: Transient-transfection antiviral study in HepG2 cells, GT E; assay type: cell-based; settings: Hepatitis B virus, HepG2, 72 h, read-out: EC50 (mean), HBV GT E
Method: as §4

[1] = parameters: method as in PMID 29079518; settings: humanized mice; cited from earlier work
HBV GT C = assay: Transient-transfection antiviral study in HepG2 cells, GT C; assay type: cell-based; settings: Hepatitis B virus, HepG2, 72 h, read-out: EC50 (mean), HBV GT C
Method: as §4

[2] = tested on: HBV core protein variant I105T; assay: microbe, parasite or virus in culture
Source text: (§1) Plasmids containing HBV DNA with rtN236T, rtA181V, rtA181V/N236T, and rtL180M/M204V/N236T were generated using the GT B WT or rtL180M/M204V DNA-containing plasmids and site-directed mutagenesis (Agilent Technologies). A panel of nine different HBV core variants (cW102G, cW102R, cI105V, cI105L, cI105T, cT109S, cT109M, cT109I, and cY118F) was generated, also using the GT B WT DNA-containing plasmid and site-directed mutagenesis. The full-length genome from all plasmids was sequenced to confirm that only the intended nucleotide change(s) was present. Finally, HBV sequences from genotypes A (GenBank accession number AF305422), C (GenBank accession number AB033550), D (GenBank accession number V01460), E (GenBank accession number AB274971), F (GenBank accession number AB036912), G (GenBank accession number AF160501), and H (GenBank accession number AB375159) were gene synthesized as 1.1 times the genome length together with part of the CMV promoter at the 5′ end. The gene-synthesized piece was validated by sequencing and subcloned into the pCMV-HBV plasmid using the restriction sites SalI and NdeI (Genewiz, USA).
(§2) HepG2 cells were seeded in 96-well plates at a density of 20,000 cells/well and allowed to attach overnight at 37°C in 5% CO2. Cells were cotransfected with the HBV plasmids (100 ng/well) and a Gaussia expression plasmid (10 ng/well) (Thermo Scientific) using the Lipofectamine LTX Plus transfection reagent (Life Technologies). Transfection mixtures were removed after overnight incubation, and cells were treated with serially diluted NVR 3-778 at a final dimethyl sulfoxide (DMSO) concentration of 0.5%. After 3 days of incubation with the compound, the supernatants were collected and secreted Gaussia luciferase was measured using a Gaussia Flash luciferase assay kit (Thermo Scientific). Cells were lysed with 0.33% NP-40 (Thermo Scientific), and the cytoplasmic fractions were treated with 2 units of Turbo DNase (Invitrogen) and 10 units of S7 nuclease (Roche) in CutSmart buffer (New England Biolabs) containing 25 µM CaCl2 (G-Biosciences) at 37°C for 60 min, followed by inactivation of the enzymes at 75°C for 15 min. Samples were diluted into lysis buffer (Affymetrix) containing 2.5 µg proteinase K (Affymetrix) at 50°C for 40 min. Intracellular encapsidated HBV DNA was denatured for 30 min at 25°C in 0.2 M NaOH (Sigma) and incubated with HBV DNA probes designed to hybridize to the minus-strand HBV DNA (Affymetrix). The denatured DNA was subsequently detected using a QuantiGene assay kit, according to the branched DNA (bDNA) assay recommended by the manufacturer (Affymetrix).
(§3) To determine percent inhibition, the mean background signal from wells containing only culture medium was subtracted from the signal for all other samples, and percent inhibition at each compound concentration was calculated by normalization to the signals for HepG2.2.15 cells treated with 0.5% DMSO. […] Both CalcuSyn and MacSynergy II (Ann Arbor, MI) software were used to evaluate the effect of compound combinations ([27]). After data analysis at the 95% confidence level, values of synergy or antagonism of <25 µM^2% were defined as insignificant, those between 25 and 50 µM^2% were defined as minor, those between 50 and 100 µM^2% were defined as moderate, and those of >100 µM^2% were defined as strong.

[3] = tested on: HBV core protein variant T109M; assay: microbe, parasite or virus in culture
Source text: as §1, §2, §3

[4] = tested on: HBV core protein variant Y118F; assay: microbe, parasite or virus in culture
Source text: as §1, §2, §3

[5] = tested on: HBV core protein variant T109I; assay: microbe, parasite or virus in culture
Source text: as §1, §2, §3

[6] = tested on: HBV rtA181V/N236T variant; assay type: cell-based, hepatitis B virus; settings: ratio of mean EC50 against variant over WT HBV, HepG2 cells
Source text: as §1, §2, §3

HBV rtN236T variant = assay type: cell-based, hepatitis B virus; settings: ratio of mean EC50 against variant over WT HBV, HepG2 cells
Source text: as §1, §2, §3

HBV GT H = assay: Transient-transfection antiviral study in HepG2 cells, GT H; assay type: cell-based; settings: Hepatitis B virus, HepG2, 72 h, read-out: EC50 (mean), HBV GT H
Method: as §4

[7] = tested on: HBV isolates representing GT A to H; assay: Transient-transfection antiviral study, panel of HBV isolates GT A to H (summary statements); assay type: cell-based, hepatitis B virus; settings: EC50 values within this factor of each other
Method: as §4

HBV rtA181V variant = assay: microbe, parasite or virus in culture; assay type: cell-based, hepatitis B virus; settings: ratio of mean EC50 against variant over WT HBV, HepG2 cells
Source text: as §1, §2, §3

[8] = ratio of mean EC50 for core variant over wild-type HBV

`O=C(Nc1cc(F)c(F)c(F)c1)c1ccc(F)c(S(=O)(=O)N2CCC(O)CC2)c1` [NVR 3-778] gave an EC50 (HBV GT A) of 380 nM, an EC50 (HBV GT D) of 430 nM and an EC50 (HBV GT E) of 580 nM. The “Plasma trough concentrations, all mice” value [1] was “at least 3 µM”, the EC50 (HBV GT C) was 340 nM and the EC50 ([2]; Hepatitis B virus, HepG2, read-out: EC50, core variant I105T) was 1500 ± 300 nM. The “EC50 FC, I105T” value [2, 8] was 6.5 fold, the EC50 ([3]; Hepatitis B virus, HepG2, read-out: EC50, core variant T109M) was 280 ± 130 nM and the “EC50 FC, T109M” value [3, 8] was 1.2 fold. For the same molecule, the EC50 ([4]; Hepatitis B virus, HepG2, read-out: EC50, core variant Y118F) was 1700 ± 700 nM, the “EC50 FC, Y118F” value [4, 8] was 7.4 fold and the EC50 ([5]; Hepatitis B virus, HepG2, read-out: EC50, core variant T109I) was 150 ± 61 nM. The “EC50 FC, T109I” value [5, 8] was 0.65 fold, the “EC50 fold change, rtA181V/N236T” value [6] was 0.85 ± 0.26^d fold and the “EC50 fold change, rtN236T” value (HBV rtN236T variant) was 0.85 ± 0.40^d fold. For the same molecule, the EC50 (HBV GT H) was 580 nM, the “Spread of EC50 values against HBV DNA replication across GT A to H isolates” value [7] was ≤ 3 fold and the “EC50 fold change, rtA181V” value (HBV rtA181V variant) was 0.82 ± 0.19^d fold.
